The subject of data set [1] is COX. Particulars: cited from earlier work; for Activity: data from the literature.
The test system of data set [2] is COX. Further details: method as in PMID 22053353. As to conditions: read-out: IC50, oxidation of endocannabinoids; cited from earlier work.
In data set [3] the test system is COX. The data set can be described thus: Biological testing for COX-inhibiting activity, overall outcome on both isoforms. The data set is classed as biochemical. Particulars: for COX isoform selectivity: COX-1 versus COX-2; for Activity: biological testing of this study.
Data set [4] has as its target T1, ram seminal vesicle COX-1 (Ovis aries, UniProt P05979).
T1 construct: ram seminal vesicle COX-1 (1 U) (Sigma–Aldrich); purchased Sigma–Aldrich; host or cells: ram seminal vesicle (tissue of origin)
T1 sequence (P05979 25-600): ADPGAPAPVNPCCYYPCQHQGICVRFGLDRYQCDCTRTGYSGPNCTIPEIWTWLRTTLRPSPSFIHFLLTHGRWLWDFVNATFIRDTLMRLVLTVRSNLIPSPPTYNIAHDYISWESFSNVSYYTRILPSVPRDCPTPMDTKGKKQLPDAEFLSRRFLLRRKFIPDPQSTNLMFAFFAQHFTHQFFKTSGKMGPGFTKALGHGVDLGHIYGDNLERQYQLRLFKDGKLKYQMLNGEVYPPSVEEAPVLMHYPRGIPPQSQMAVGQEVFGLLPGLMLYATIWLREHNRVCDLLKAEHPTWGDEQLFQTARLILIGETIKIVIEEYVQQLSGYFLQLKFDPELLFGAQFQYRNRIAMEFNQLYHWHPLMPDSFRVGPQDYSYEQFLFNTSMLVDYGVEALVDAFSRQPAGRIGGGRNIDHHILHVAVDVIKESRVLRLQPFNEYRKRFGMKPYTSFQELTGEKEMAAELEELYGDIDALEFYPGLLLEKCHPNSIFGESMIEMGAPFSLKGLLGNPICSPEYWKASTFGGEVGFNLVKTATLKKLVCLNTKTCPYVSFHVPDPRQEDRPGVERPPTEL
Put plainly: COX-1 inhibition assay (PGE2 EIA). It counts as biochemical. As to conditions: average of at least two independent experiments, triplicates; read-out: IC50 COX-1.

In a further data set the target is T2, human recombinant COX-2 (Homo sapiens, UniProt P35354).
T2 construct: purchased Sigma–Aldrich
T2 sequence (P35354 18-604): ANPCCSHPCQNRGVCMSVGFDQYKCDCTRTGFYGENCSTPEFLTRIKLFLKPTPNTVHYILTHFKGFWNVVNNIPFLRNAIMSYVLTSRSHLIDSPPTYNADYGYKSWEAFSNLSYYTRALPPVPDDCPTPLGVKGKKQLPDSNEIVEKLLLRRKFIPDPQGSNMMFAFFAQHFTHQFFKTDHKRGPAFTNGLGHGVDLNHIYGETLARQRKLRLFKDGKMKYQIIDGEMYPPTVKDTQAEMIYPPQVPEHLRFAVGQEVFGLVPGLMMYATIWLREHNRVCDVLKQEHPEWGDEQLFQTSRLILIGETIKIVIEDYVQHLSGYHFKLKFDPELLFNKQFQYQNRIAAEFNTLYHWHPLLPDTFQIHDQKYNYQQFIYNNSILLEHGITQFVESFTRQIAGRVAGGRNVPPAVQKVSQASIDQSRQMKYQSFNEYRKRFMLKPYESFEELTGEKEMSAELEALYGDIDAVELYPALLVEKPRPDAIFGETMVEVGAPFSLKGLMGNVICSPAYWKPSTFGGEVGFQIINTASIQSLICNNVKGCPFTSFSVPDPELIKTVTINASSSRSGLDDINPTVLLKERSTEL
Put plainly: COX-2 inhibition assay (PGE2 EIA). Particulars: average of at least two independent experiments, triplicates; read-out: IC50 COX-2. It counts as biochemical.

Another data set deals with mice and rats. Further details: method as in earlier work. As to conditions: ref 1 (Supporting Information), cited from earlier work.
The test system of the next data set is U937 cells. Further details: method as in PMID 19958764. Particulars: stimulated differentiated U937 cells; cited from earlier work.

Where two headings read alike, the source gives them in different places.

By IC50 is commonly meant the midpoint of a concentration-inhibition curve. In the case of `CC(C)Cc1ccc([C@@H](C)C(=O)O)cc1` [(R)-ibuprofen], in the data set on COX [1], the “PGE2 formation from AA” value is “only inhibited at high concentrations” and the Activity result was “Active [60]”. The IC50 in the data set with COX [2] is around 10 µM.
`CCC(c1ccc(O)c(F)c1)C(C)c1ccc(O)c(F)c1` (centres unmarked) [Bifluranol (1), Bifluranol]: in the data set with COX [3], the COX isoform selectivity entry was “COX-1 selective” and the outcome was Active. Further, the IC50 in data set [4] was 33 ± 7.3 µM. Moreover, the IC50 on human recombinant COX-2 was above 20 µM. For the same compound, the anti-prostatic effects result with mice and rats (mice and rats, compared to DES) was “comparable extent to diethylstilbestrol (DES)”. Besides, in the data set with mice and rats, the “estrogenicity, lower compared to DES” value is given as “approximately 8 fold”. For the same compound, the spermatogenesis or fertility entry in the data set with mice and rats (unlike DES) is on record as “did not impair spermatogenesis or fertility”.
With `COc1cc(/C=C2\CCC/C(=C\c3ccc(O)c(OC)c3)C2=O)ccc1O` [Cyqualon (3), Cyqualon], the COX isoform selectivity entry in the data set with COX [3] is given as “COX-1 selective”. Also, in the data set on COX [3], the result was Active. Moreover, the PGE2-formation result in the data set on U937 cells was “did not prevent PGE2-formation”. Also, the IC50 was 1.5 ± 2.1 µM in data set [4] and above 20 µM on human recombinant COX-2.
On to `CC(C(=O)O)c1ccc(N2Cc3ccccc3C2=O)cc1` (centres unmarked) [Indoprofen], for which the Activity entry in the data set with COX [1] was “Active [55]”.
As to `CC(C(=O)O)c1cccc(C(=O)c2ccccc2)c1` (centres unmarked) [Ketoprofen], the Activity entry with COX [1] was “Active [56]”.
In the case of `Cc1ccc(Cl)c(Nc2ccccc2C(=O)O)c1Cl` [Meclofenamic acid], in the data set with COX [1], the Activity result was “Active [57]”.
On to `Cc1cccc(Nc2ccccc2C(=O)O)c1C` [Mefenamic acid], for which the Activity result in the data set with COX [1] was “Active [58]”.
Regarding `CC(C(=O)O)c1ccc(N2CC=CC2)c(Cl)c1` (centres unmarked) [Pirprofen], the Activity result with COX [1] is “Active [59]”.
Take `O=C(O)c1cc(/N=N/c2ccc(S(=O)(=O)Nc3ccccn3)cc2)ccc1O` [Sulfasalazin]: the COX-inhibition result in the data set on COX [1] (no IC50 available) is “Evidence for COX-inhibition”.
As for `CC(C(=O)O)c1ccc(C(=O)c2ccccc2)s1` (centres unmarked) [Tiaprofenic acid], in the data set with COX [1], the Activity result was “Active [55]”.
Take `COc1ccc(C(Cl)=C(c2ccc(OC)cc2)c2ccc(OC)cc2)cc1` [chlorotrianisene]: the COX inhibition entry in the data set with COX [1] (identified by SEA) was “COX-inhibitor”.

Source of the values: article PMC4444576, “Prospective performance evaluation of selected common virtual screening tools. Case study: Cyclooxygenase (COX) 1 and 2” (European Journal of Medicinal Chemistry, 2015).
